# Laboratory results published in ChEMBL document CHEMBL1139548, “Cyclic ADP-ribose analogues containing the methylenebisphosphonate linkage: effect of pyrophosphate modifications on Ca2+ release activity” (J Med Chem, 2005).
# Assay: Effective concentration against release of [Ca2+] ions from sea urchin egg
# Format: functional
row,EC50 [nM],SMILES
1,300,"N=c1c2ncn3c2ccn1C1OC(COP(=O)(O)CP(=O)(O)OC[C@H]2OC3[C@H](O)C2O)[C@@H](O)[C@H]1O (single isomer, unassigned)"
2,856,"N=c1c2ncn3c2ncn1C1OC(COP(=O)(O)CP(=O)(O)OC[C@H]2OC3[C@H](O)C2O)[C@@H](O)[C@H]1O (single isomer, unassigned)"
